ChEMBL document CHEMBL3507680, “University of Dundee, Gates Library screen for HepG2 cell viability”

Assay: Human HepG2 cell viability assay in 384 well format
Format: toxicity, cell-based
Parameters: dose 125 nL, time 70.5 hour; cytotoxicity at 70.5 h: concentration not given beside the values
Conditions: HepG2 cells, read-out: Inhibition

Structure (SMILES) | cytotoxicity at 70.5 h [%]
CC(=O)N1CCc2[nH]cnc2C12CCN(C(=O)Cc1cccs1)CC2 | -9.66
Cc1occc1C(=O)N1CCC2(CC1)CN(Cc1nccs1)CCO2 | 7.01
CC(C1CCN(Cc2c(Cl)ccc(O)c2Cl)CC1)N1CCN(C)CC1 (stereo unspecified) | -4.03
c1cnc(NC2COC3(CCN(Cc4cc[nH]n4)CC3)C2)nc1 (stereo unspecified) | -99.2
Cc1cc(C)n(CCN2CCN(C(=O)c3ccccc3Br)CC2)n1 | -2.29
Cc1ncc(CNC(=O)CCc2cccs2)c(C2CCCN2C)n1 (stereo unspecified) | -4.28
CC(O)CNCc1c(C(C)C)nn(C)c1N1CCOCC1 (stereo unspecified) | -0.301
Cc1noc(C)c1CN(C)C(=O)NC1CCC(O)CC1 (stereo unspecified) | -8.86
CC(NC(=O)CN1CCN(Cc2ccc(Br)s2)CC1)c1ccccc1 (stereo unspecified) | 25.3
Cc1cc(OCC(O)c2nc3c([nH]2)CC(C)(C)CNC3=O)ccc1Cl (stereo unspecified) | -12.4
Cc1nnc2n1CCN(Cc1ncc(-c3ccccc3)o1)C2 | -9.8
CCC1c2cccn2CCN1C(=O)c1ccc2nonc2c1 (stereo unspecified) | -2.25
Cc1ccc(CN2CCc3c(COCC4CC4)nn(C)c3C2)s1 | 21.5
CC1CCN(C(=O)[C@H]2C[C@@H]3CCN(CC4CCOCC4)C[C@@H]3O2)CC1 | -6.29
Cn1c(CO)cnc1SC(C(N)=O)c1ccccc1 (stereo unspecified) | -15.2
CNC(=O)c1cnc(/C=C/c2ccc(O)c(OC)c2)s1 | -14.3
CC(NC1(CNS(C)(=O)=O)CCOCC1)c1ccccc1 (stereo unspecified) | -8.35
OC1(CN2CCC(Oc3cccnc3)CC2)CNCCOC1 (stereo unspecified) | -7.48
O=C(O)c1ccn(-c2ccc(NC(=O)c3ccccc3Cl)cc2)n1 | 11.9

Structure (SMILES) | cytotoxicity at 70.5 h [%]
Cc1ccccc1-c1noc(CN2CCC(N3CCNC3=O)CC2)n1 | 40.4
COc1cccc(Cn2c(C3CCNCC3)cc3cccnc32)c1 | -1.55
Cc1cnc(-c2nc(O)c3c(n2)CN(C(=O)CC2CCCC2)CC3)cn1 | -2.15
CCC1=N[C@@]2(CC[C@@H]3CN(Cc4cccc(Cl)c4)C[C@@H]32)C(=O)N1C | 16.7
CCOCC1CN(C(=O)c2cnccn2)Cc2cnn(CC3CC3)c21 (stereo unspecified) | -10.4
O=C(NCCNS(=O)(=O)c1cccc(Cl)c1)C1CCCO1 (stereo unspecified) | 6.97
O=C1NCCN1CCNc1cc(-c2ccncc2)nc2ccnn12 | -10.3
Cc1ccc2c(n1)N(Cc1csc(C)n1)CCN(C1CCOC1)C2 (stereo unspecified) | -5.88
Cc1noc(NCc2ccc(F)cc2)n1 | -1.48
Fc1cnc(N2CCN3C[C@H](Oc4cccnc4)C[C@H]3C2)nc1 | -3.94
Cc1noc(C)c1C(=O)NCc1cccnc1N(C)C | -9.96
Fc1cnc(N2CCOC3(CCN(Cc4ccsc4)CC3)C2)nc1 | 8.85
CNC(=O)[C@H]1C[C@@H]2CN(C(=O)c3ccco3)C[C@@H]2N1S(C)(=O)=O | -7.68
Cc1ccc(F)c(C(=O)NC2CCC(N3C(=O)CCC3=O)CC2)c1 (stereo unspecified) | -0.936
Cc1cccc(N2CCC(NC(=O)CCCc3cccs3)CC2)n1 | -2.62
O=C(c1cccnc1N1CCCCC1)N1CCCC(n2cccn2)C1 (stereo unspecified) | 15.6
CC(Cn1cccn1)NC(=O)N(C)Cc1ccsc1 (stereo unspecified) | -16.6
CC(C)(C)c1ccc(C(=O)C2CCCN(C(=O)CNS(C)(=O)=O)C2)cc1 (stereo unspecified) | 23.1
CC(C)C(=O)Nc1ccc(Sc2nncn2C)c(Cl)c1 | -16

Structure (SMILES) | cytotoxicity at 70.5 h [%]
CCS(=O)(=O)N1CCc2onc(CNc3ncccn3)c2C1 | -8.6
OC1(CNCc2noc(Cc3ccccc3)n2)CCCNC1 (stereo unspecified) | 0.455
O=C([C@@H]1Cc2[nH]cnc2CN1C(=O)NC1CCCCC1)N1CCCC1 | -7.01
O=C(c1ccsc1)N1CCc2ncc(Cn3cncn3)n2CC1 | -14.2
Cc1cc(N2CCN(Cc3cn(C)nc3C)CC2)cc(C2CCNC2)n1 (stereo unspecified) | -5.44
COc1ccc(Cl)c(NCC(=O)NCC(=O)N2CCCC2)c1 | -18.4
Cc1c(S(=O)(=O)NCC(C)Cn2cc(Cl)cn2)cnn1C (stereo unspecified) | 1.36
CCc1ncncc1C(=O)N1CCOC(c2nc(C)n[nH]2)C1 (stereo unspecified) | -3
CCc1cnc(N2CC[C@@H]3CN(CCC(C)C)S(=O)(=O)[C@@H]3CC2)nc1 | -4.3
Cc1cc(C(=O)NS(C)(=O)=O)c(C)n1-c1ccccc1 | -13.1
O=C(c1cccnc1-c1ccc2c(c1)OCCO2)N1CCCC1 | -8.05
O=C(O)[C@H]1CN(Cc2ccccc2)C[C@@H]1C(=O)c1ccccc1 | -3.77
O=C(c1cnc(-c2ccccn2)s1)N1CCCC(n2cccn2)C1 (stereo unspecified) | 10.2
CC(C)n1cnc2c1C(C(=O)N(C)C)N(Cc1ccccc1)CC2 (stereo unspecified) | -3.01
Cc1nn(C)c(C)c1-c1ccnc(N(C)Cc2nc(C(C)C)no2)n1 | 3.94
CCOc1ccc2[nH]c(=O)c(CN3CCC(O)CC3)cc2c1 | -7.88
CCCS(=O)(=O)NC(C)c1cccc(-n2cccn2)c1 (stereo unspecified) | -6.77
COc1ccc(-n2cnnc2CC2CCNCC2)cc1 | 1.1
